In patent US10179771B2 (GALAPAGOS NV, priority 2014, dated 2019):

Tests used:
[1] = biological target: T1, Recombinant human JAK3 catalytic domain (Homo sapiens, UniProt P52333); assay: JAK3 inhibition assay; format: biochemical
T1 construct: Recombinant human JAK3 catalytic domain (amino acids 781-1124; catalog number PV3855); purchased Invitrogen PV3855
Procedure: Recombinant human JAK3 catalytic domain (amino acids 781-1124; catalog number PV3855) was purchased from Invitrogen. 0.5 ng JAK3 protein was incubated with 2.5 μg polyGT substrate (Sigma catalog number P0275) in kinase reaction buffer (25 mM Tris pH 7.5, 0.5 mM EGTA, 10 mM MgCl2, 2.5 mM DTT, 0.5 mM Na3VO4, 5 mM b-glycerolphosphate, 0.01% Triton X-100, 1 μM non-radioactive ATP, […] ^33P-gamma-ATP (GE Healthcare, catalog number AH9968) final concentrations) with or without 5 μL containing test compound or vehicle (DMSO, 1% final concentration), in a total volume of 25 μL, in a polypropylene 96-well plate (Greiner, V-bottom). After 45 min at 30° C., reactions were stopped by adding 25 μL/well of 150 mM phosphoric acid. All of the terminated kinase reaction was transferred to prewashed (75 mM phosphoric acid) 96 well filter plates (Perkin Elmer catalog number 6005177) using a cell harvester (Perkin Elmer). Plates were washed 6 times with 300 μL per well of a 75 mM phosphoric acid solution and the bottom of the plates was sealed. 40 μL/well of Microscint-20 was added, the top of the plates was sealed and readout was performed using the Topcount (Perkin Elmer). Kinase activity was calculated by subtracting counts per min (cpm) obtained in the presence of a positive control inhibitor (10 μM staurosporine) from cpm obtained in the presence of vehicle. The ability of a test compound to inhibit this activity was determined as:
[formula] • RFU test compound=RFU determined for sample with test compound present • RFU control=RFU determined for sample with positive control inhibitor • RFU vehicle=RFU determined in the presence of vehicle
(§1) Dose dilution series were prepared for the compounds enabling the testing of dose-response effects in the JAK3 assay and the calculation of the IC50 for each compound. Each compound was routinely tested at concentration of 20 μM followed by a 1/5 serial dilution, 10 points in a final concentration of 1% DMSO. When potency of compound series increased, more dilutions were prepared and/or the top concentration was lowered (e.g. 5 μM, 1 μM).

[2] = biological target: T2, Recombinant human TYK2 catalytic domain (Homo sapiens, UniProt P29597); assay: TYK2 inhibition assay; format: biochemical
T2 construct: Recombinant human TYK2 catalytic domain (amino acids 871-1187; catalog number 08-147); purchased Carna biosciences 08-147
T2 sequence (P29597 871-1187): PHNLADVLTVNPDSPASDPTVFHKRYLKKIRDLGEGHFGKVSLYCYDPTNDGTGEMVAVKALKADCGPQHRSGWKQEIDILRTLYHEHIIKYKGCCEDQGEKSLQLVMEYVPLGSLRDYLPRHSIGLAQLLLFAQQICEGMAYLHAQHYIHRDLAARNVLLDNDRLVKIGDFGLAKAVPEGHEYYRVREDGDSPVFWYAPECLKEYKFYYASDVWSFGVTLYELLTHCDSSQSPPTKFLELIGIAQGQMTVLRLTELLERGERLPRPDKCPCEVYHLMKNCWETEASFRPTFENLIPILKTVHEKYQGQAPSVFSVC
Procedure: Recombinant human TYK2 catalytic domain (amino acids 871-1187; catalog number 08-147) was purchased from Carna biosciences. 5 ng of TYK2 was incubated with 12.5 μg polyGT substrate (Sigma catalog number P0275) in kinase reaction buffer (25 mM Hepes pH 7.2, 50 mM NaCl, 0.5 mM EDTA, 1 mM DTT, 5 mM MnCl2, 10 mM MgCl2, 0.1% Brij-35, 0.1 μM non-radioactive ATP, 0.125 μCi ^33P-gamma-ATP (GE Healthcare, catalog number AH9968) final concentrations) with or without 5 μL containing test compound or vehicle (DMSO, 1% final concentration), in a total volume of 25 μL, in a polypropylene 96-well plate (Greiner, V-bottom). After 90 min at 30° C., reactions were stopped by adding 25 μL/well of 150 mM phosphoric acid. All of the terminated kinase reaction was transferred to prewashed (75 mM phosphoric acid) 96 well filter plates (Perkin Elmer catalog number 6005177) using a cell harvester (Perkin Elmer). Plates were washed 6 times with 300 μL per well of a 75 mM phosphoric acid solution and the bottom of the plates was sealed. 40 μL/well of Microscint-20 was added, the top of the plates was sealed and readout was performed using the Topcount (Perkin Elmer). Kinase activity was calculated by subtracting counts per min (cpm) obtained in the presence of a positive control inhibitor (10 μM staurosporine) from cpm obtained in the presence of vehicle. The ability of a test compound to inhibit this activity was determined as: Percentage inhibition=((cpm determined for sample with test compound present−cpm determined for sample with positive control inhibitor) divided by (cpm determined in the presence of vehicle−cpm determined for sample with positive control inhibitor))*100.
as §1, with “TYK2” for “JAK3”, “1/3” for “1/5”, “8” for “10”, “points (20 μM-6.67 μM-2.22 μM-740 nM-247 nM-82 nM-27 nM-9 nM)” for “points”

[3] = Illustrative Compounds of the invention (Table IX)
[4] = Illustrative Compounds of the invention (Table XI)

T1 sequence (P52333 781-1124): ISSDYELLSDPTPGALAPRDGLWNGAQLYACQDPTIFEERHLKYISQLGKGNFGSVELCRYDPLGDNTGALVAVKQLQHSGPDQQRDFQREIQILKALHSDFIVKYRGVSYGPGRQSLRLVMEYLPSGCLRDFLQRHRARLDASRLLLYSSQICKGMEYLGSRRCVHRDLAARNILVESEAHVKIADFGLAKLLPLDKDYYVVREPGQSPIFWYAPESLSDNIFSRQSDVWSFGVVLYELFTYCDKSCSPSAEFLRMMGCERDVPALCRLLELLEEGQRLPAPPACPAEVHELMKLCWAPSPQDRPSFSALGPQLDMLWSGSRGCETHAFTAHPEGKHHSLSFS

Molecule `CNC(=O)Nc1cc(Oc2cnc(C#N)cc2C)cc2c1ncn2C` has an IC50 [1, 3] of 100 to 500 nM and an IC50 [2, 4] of 0.1 to 50 nM.

`CCc1cc(C#N)cc(F)c1N(C)c1cc(NC(=O)[C@@H]2C[C@@H]2F)c2ncn(C)c2c1` (racemic) [Cpd 7, N-(6-((4-cyano-2-ethyl-6-fluorophenyl)(methyl)amino)-1-methyl-1H-benzo[d]imidazol-4-yl)-2-fluorocyclopropanecarboxamide (1S,2S)/(1R,2R) racemic mixture] showed an IC50 [1, 3] of 0.1 to 50 nM and an IC50 [2, 4] of 0.1 to 50 nM.

`CN(c1ccc2ncn(C)c2c1)c1ccc(C#N)cc1F` [C, 3-fluoro-4-[methyl-(3-methylbenzimidazol-5-yl)amino]benzonitrile, reference compound] gave an IC50 ([1]; Comparative Compounds (Table X)) greater than 500 nM and an IC50 ([2]; Comparative Compounds (Table XII)) greater than 500 nM.

With `CCc1cc(C#N)ncc1N(C)c1cc(NC(=O)C2CC2)c2ncn(C)c2c1` [Cpd 1, N-(6-((6-cyano-4-ethylpyridin-3-yl)(methyl)amino)-1-methyl-1H-benzo[d]imidazol-4-yl)cyclopropanecarboxamide] the IC50 [1, 3] was 50 to 100 nM and the IC50 [2, 4] was 0.1 to 50 nM.

`CCc1cc(C#N)cc(F)c1Nc1cc(NC(=O)C2CC2)c2ncn(C)c2c1` [Cpd 2, N-(6-(4-cyano-2-ethyl-6-fluorophenylamino)-1-methyl-1H-benzo[d]imidazol-4-yl)cyclopropanecarboxamide] showed an IC50 [1, 3] of 0.1 to 50 nM and an IC50 [2, 4] of 0.1 to 50 nM.

`CCc1cc(C#N)cc(F)c1N(C)c1cc(NC(=O)C2CC2)c2ncn(C)c2c1` [Cpd 3, N-(6-((4-cyano-2-ethyl-6-fluorophenyl)(methyl)amino)-1-methyl-1H-benzo[d]imidazol-4-yl)cyclopropanecarboxamide] gave an IC50 [1, 3] of 0.1 to 50 nM and an IC50 [2, 4] of 0.1 to 50 nM.

`CCc1cc(C#N)ncc1N(C)c1cc(NC(=O)OC)c2ncn(C)c2c1` [Cpd 4, methyl 6-((6-cyano-4-ethylpyridin-3-yl)(methyl)amino)-1-methyl-1H-benzo[d]imidazol-4-ylcarbamate] was tested, and the IC50 [1, 3] was 100 to 500 nM and the IC50 [2, 4] was 0.1 to 50 nM.

`CCc1cc(C#N)cc(F)c1N(C)c1cc(NC(=O)OC)c2ncn(C)c2c1` [Cpd 5, methyl 6-((4-cyano-2-ethyl-6-fluorophenyl)(methyl)amino)-1-methyl-1H-benzo[d]imidazol-4-ylcarbamate] showed an IC50 [1, 3] of 50 to 100 nM and an IC50 [2, 4] of 0.1 to 50 nM.

`CCc1cc(C#N)ncc1Oc1cc(NC(=O)[C@H]2C[C@H]2F)c2ncn(C)c2c1` [Cpd 6, (1R,2R)-N-[6-[(6-cyano-4-ethyl-3-pyridyl)oxy]-1-methyl-benzimidazol-4-yl]-2-fluoro-cyclopropanecarboxamide] was tested, and the IC50 [1, 3] was greater than 500 nM and the IC50 [2, 4] was 0.1 to 50 nM.

`CCc1cc(C#N)ncc1N(C)c1cc(NC(=O)[C@H]2C[C@H]2F)c2ncn(C)c2c1` [Cpd 8, (1R,2R)-N-(6-((6-cyano-4-ethylpyridin-3-yl)(methyl)amino)-1-methyl-1H-benzo[d]imidazol-4-yl)-2-fluorocyclopropanecarboxamide] was tested, and the IC50 [1, 3] was 100 to 500 nM and the IC50 [2, 4] was 0.1 to 50 nM.

In the case of `Cc1cc(C#N)ncc1N(C)c1cc(NC(=O)[C@H]2C[C@H]2F)c2ncn(C)c2c1` [Cpd 9, (1R,2R)-N-(6-((6-cyano-4-methylpyridin-3-yl)(methyl)amino)-1-methyl-1H-benzo[d]imidazol-4-yl)-2-fluorocyclopropanecarboxamide], the IC50 [1, 3] is reported as 100 to 500 nM and the IC50 [2, 4] is reported as 0.1 to 50 nM.

For `CCc1cc(C#N)ccc1Oc1cc(NC(=O)[C@H]2C[C@H]2F)c2ncn(C)c2c1` [Cpd 10, (1R,2R)-N-[6-(4-cyano-2-ethyl-phenoxy)-1-methyl-benzimidazol-4-yl]-2-fluoro-cyclopropanecarboxamide], the IC50 [1, 3] was 100 to 500 nM and the IC50 [2, 4] was 0.1 to 50 nM.

With `CN(c1cc(NC(=O)[C@H]2C[C@H]2F)c2ncn(C)c2c1)c1c(F)cc(C#N)cc1Cl` [Cpd 11, (1R,2R)-N-[6-(2-chloro-4-cyano-6-fluoro-N-methyl-anilino)-1-methyl-benzimidazol-4-yl]-2-fluoro-cyclopropanecarboxamide] the IC50 [1, 3] was 100 to 500 nM and the IC50 [2, 4] was 0.1 to 50 nM.

`Cc1cc(F)ncc1N(C)c1cc(NC(=O)[C@H]2C[C@H]2F)c2ncn(C)c2c1` [Cpd 12, (1R,2R)-2-fluoro-N-[6-[(6-fluoro-4-methyl-3-pyridyl)-methyl-amino]-1-methyl-benzimidazol-4-yl]cyclopropanecarboxamide] was tested, and the IC50 [1, 3] was 100 to 500 nM and the IC50 [2, 4] was 0.1 to 50 nM.

For `CN(c1cc(NC(=O)[C@H]2C[C@H]2F)c2ncn(C)c2c1)c1ccc(F)nc1F` [Cpd 13, (1R,2R)-N-[6-[(2,6-difluoro-3-pyridyl)-methyl-amino]-1-methyl-benzimidazol-4-yl]-2-fluoro-cyclopropanecarboxamide], the IC50 [1, 3] was greater than 500 nM and the IC50 [2, 4] was 0.1 to 50 nM.

Molecule `CN(c1cc(NC(=O)[C@H]2C[C@H]2F)c2ncn(C)c2c1)c1ccc(C#N)nc1F` [Cpd 14, (1R,2R)-N-[6-[(6-cyano-2-fluoro-3-pyridyl)-methyl-amino]-1-methyl-benzimidazol-4-yl]-2-fluoro-cyclopropanecarboxamide] has an IC50 [1, 3] of 100 to 500 nM and an IC50 [2, 4] of 0.1 to 50 nM.

For `CN(c1cc(NC(=O)[C@H]2C[C@H]2F)c2ncn(C)c2c1)c1ccc(C#N)cc1F` [Cpd 15, (1R,2R)-N-[6-(4-cyano-2-fluoro-N-methyl-anilino)-1-methyl-benzimidazol-4-yl]-2-fluoro-cyclopropanecarboxamide], the IC50 [1, 3] was greater than 500 nM and the IC50 [2, 4] was 0.1 to 50 nM.

`Cc1cc(S(C)(=O)=O)cc(F)c1N(C)c1cc(NC(=O)[C@H]2C[C@H]2F)c2ncn(C)c2c1` [Cpd 16, (1R,2R)-2-fluoro-N-[6-(2-fluoro-N,6-dimethyl-4-methylsulfonyl-anilino)-1-methyl-benzimidazol-4-yl]cyclopropanecarboxamide] showed an IC50 [1, 3] of 50 to 100 nM and an IC50 [2, 4] of 0.1 to 50 nM.

In the case of `CN(c1cc(NC(=O)[C@H]2C[C@H]2F)c2ncn(C)c2c1)c1ccc(S(C)(=O)=O)cc1F` [Cpd 17, (1R,2R)-2-fluoro-N-[6-(2-fluoro-N-methyl-4-methylsulfonyl-anilino)-1-methyl-benzimidazol-4-yl]cyclopropanecarboxamide], the IC50 [1, 3] is reported as greater than 500 nM and the IC50 [2, 4] is reported as 100 to 500 nM.

`CCc1cc(S(C)(=O)=O)ncc1N(C)c1cc(NC(=O)C2CC2)c2ncn(C)c2c1` [Cpd 18, N-[6-[(4-ethyl-6-methylsulfonyl-3-pyridyl)-methyl-amino]-1-methyl-benzimidazol-4-yl]cyclopropanecarboxamide] showed an IC50 [1, 3] of 100 to 500 nM and an IC50 [2, 4] of 0.1 to 50 nM.

With `Cc1cc(S(C)(=O)=O)cc(F)c1N(C)c1cc(NC(=O)C2CC2)c2ncn(C)c2c1` [Cpd 19, N-[6-(2-fluoro-N,6-dimethyl-4-methylsulfonyl-anilino)-1-methyl-benzimidazol-4-yl]cyclopropanecarboxamide] the IC50 [1, 3] was 50 to 100 nM and the IC50 [2, 4] was 0.1 to 50 nM.
